Data reported in the supplement of paper PMC10307832.

How the values were obtained:
Crenolanib = compound: CC1(COc2ccc3c(c2)ncn3-c2ccc3cccc(N4CCC(N)CC4)c3n2)COC1 [Crenolanib]; experiment: relative viability (nuclei count vs DMSO), 5 days (fraction); higher = more cells survive
How it was run: (§1)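 Nuclei counted with MetaXpress define viability as the ratio of treated to vehicle wells, given as a median across plates. The lung cancer cell lines were in 1536-well plates, pinned with five √10-spaced library-drug doses and imaged at 4× after 5 days and Hoechst staining. Plates passed with control CV below 25% and at least one doubling.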

Tivantinib = compound: O=C1NC(=O)[C@@H](c2cn3c4c(cccc24)CCC3)[C@@H]1c1c[nH]c2ccccc12 [Tivantinib]; experiment: as above
How it was run: as §1

## HCC-366
Crenolanib; 0.01 µM
  relative viability: 1.03
Crenolanib; 0.03162 µM
  relative viability: 1.03
Crenolanib; 0.1 µM
  relative viability: 0.958
Crenolanib; 0.3162 µM
  relative viability: 1.05
Crenolanib; 1 µM
  relative viability: 0.998
Tivantinib; 0.01 µM
  relative viability: 1.02
Tivantinib; 0.03162 µM
  relative viability: 1.03
Tivantinib; 0.1 µM
  relative viability: 0.994
Tivantinib; 0.3162 µM
  relative viability: 0.955

## HCC-827
Crenolanib; 0.01 µM
  relative viability: 1.08
Crenolanib; 0.03162 µM
  relative viability: 1.02
Crenolanib; 0.1 µM
  relative viability: 1.03
Crenolanib; 0.3162 µM
  relative viability: 1.04
Crenolanib; 1 µM
  relative viability: 0.958
Tivantinib; 0.01 µM
  relative viability: 1.06
Tivantinib; 0.03162 µM
  relative viability: 1.07
Tivantinib; 0.1 µM
  relative viability: 1.04
Tivantinib; 0.3162 µM
  relative viability: 0.765

## HOP-62
Crenolanib; 0.01 µM
  relative viability: 0.986
Crenolanib; 0.03162 µM
  relative viability: 1.02
Crenolanib; 0.1 µM
  relative viability: 0.977
Crenolanib; 0.3162 µM
  relative viability: 1.1
Crenolanib; 1 µM
  relative viability: 0.933
Tivantinib; 0.01 µM
  relative viability: 0.975
Tivantinib; 0.03162 µM
  relative viability: 0.787
Tivantinib; 0.1 µM
  relative viability: 0.972
Tivantinib; 0.3162 µM
  relative viability: 1.02

## IA-LM
Crenolanib; 0.01 µM
  relative viability: 1.1
Crenolanib; 0.03162 µM
  relative viability: 0.888
Crenolanib; 0.1 µM
  relative viability: 0.852
Crenolanib; 0.3162 µM
  relative viability: 1.07
Crenolanib; 1 µM
  relative viability: 1.1
Tivantinib; 0.01 µM
  relative viability: 0.956
Tivantinib; 0.03162 µM
  relative viability: 0.897
Tivantinib; 0.1 µM
  relative viability: 0.864
Tivantinib; 0.3162 µM
  relative viability: 0.978

## LC-2-ad
Crenolanib; 0.01 µM
  relative viability: 1.01
Crenolanib; 0.03162 µM
  relative viability: 0.982
Crenolanib; 0.1 µM
  relative viability: 0.94
Crenolanib; 0.3162 µM
  relative viability: 0.976
Crenolanib; 1 µM
  relative viability: 0.866
Tivantinib; 0.01 µM
  relative viability: 0.977
Tivantinib; 0.03162 µM
  relative viability: 0.933
Tivantinib; 0.1 µM
  relative viability: 0.934
Tivantinib; 0.3162 µM
  relative viability: 1.01

## LCLC-97TM1
Crenolanib; 0.01 µM
  relative viability: 1.12
Crenolanib; 0.03162 µM
  relative viability: 0.903
Crenolanib; 0.1 µM
  relative viability: 0.93
Crenolanib; 0.3162 µM
  relative viability: 1.05
Crenolanib; 1 µM
  relative viability: 0.921
Tivantinib; 0.01 µM
  relative viability: 1.02
Tivantinib; 0.03162 µM
  relative viability: 0.813
Tivantinib; 0.1 µM
  relative viability: 0.961
Tivantinib; 0.3162 µM
  relative viability: 0.871

## LCLC-103H
Crenolanib; 0.01 µM
  relative viability: 1.01
Crenolanib; 0.03162 µM
  relative viability: 1.01
Crenolanib; 0.1 µM
  relative viability: 0.892
Crenolanib; 0.3162 µM
  relative viability: 0.983
Crenolanib; 1 µM
  relative viability: 0.92
Tivantinib; 0.01 µM
  relative viability: 0.895
Tivantinib; 0.03162 µM
  relative viability: 0.842
Tivantinib; 0.1 µM
  relative viability: 0.963
Tivantinib; 0.3162 µM
  relative viability: 0.951

## LK-2
Crenolanib; 0.01 µM
  relative viability: 0.981
Crenolanib; 0.03162 µM
  relative viability: 1.04
Crenolanib; 0.1 µM
  relative viability: 0.979
Crenolanib; 0.3162 µM
  relative viability: 1.14
Crenolanib; 1 µM
  relative viability: 0.898
Tivantinib; 0.01 µM
  relative viability: 1.04
Tivantinib; 0.1 µM
  relative viability: 0.892
Tivantinib; 0.3162 µM
  relative viability: 0.89

## LOU-NH91
Crenolanib; 0.01 µM
  relative viability: 1.02
Crenolanib; 0.03162 µM
  relative viability: 0.939
Crenolanib; 0.1 µM
  relative viability: 0.929
Crenolanib; 0.3162 µM
  relative viability: 0.891
Crenolanib; 1 µM
  relative viability: 0.906
Tivantinib; 0.01 µM
  relative viability: 0.932
Tivantinib; 0.03162 µM
  relative viability: 0.946
Tivantinib; 0.1 µM
  relative viability: 1.02
Tivantinib; 0.3162 µM
  relative viability: 0.747

## LU99A
Crenolanib; 0.01 µM
  relative viability: 1.1
Crenolanib; 0.03162 µM
  relative viability: 0.974
Crenolanib; 0.1 µM
  relative viability: 1.04
Crenolanib; 0.3162 µM
  relative viability: 1
Crenolanib; 1 µM
  relative viability: 1.02
Tivantinib; 0.01 µM
  relative viability: 1.06
Tivantinib; 0.03162 µM
  relative viability: 0.76
Tivantinib; 0.1 µM
  relative viability: 0.909
Tivantinib; 0.3162 µM
  relative viability: 1.01

## LXF-289
Crenolanib; 0.01 µM
  relative viability: 0.964
Crenolanib; 0.03162 µM
  relative viability: 0.996
Crenolanib; 0.1 µM
  relative viability: 0.97
Crenolanib; 0.3162 µM
  relative viability: 1.01
Crenolanib; 1 µM
  relative viability: 0.976
Tivantinib; 0.01 µM
  relative viability: 1.03
Tivantinib; 0.03162 µM
  relative viability: 1.03
Tivantinib; 0.1 µM
  relative viability: 0.977
Tivantinib; 0.3162 µM
  relative viability: 1.01

## NCI-H23
Crenolanib; 0.01 µM
  relative viability: 1.03
Crenolanib; 0.03162 µM
  relative viability: 0.929
Crenolanib; 0.1 µM
  relative viability: 0.911
Crenolanib; 0.3162 µM
  relative viability: 1
Crenolanib; 1 µM
  relative viability: 0.766
Tivantinib; 0.01 µM
  relative viability: 0.975
Tivantinib; 0.03162 µM
  relative viability: 0.762
Tivantinib; 0.1 µM
  relative viability: 0.982
Tivantinib; 0.3162 µM
  relative viability: 1

## NCI-H322M
Crenolanib; 0.01 µM
  relative viability: 0.936
Crenolanib; 0.03162 µM
  relative viability: 0.911
Crenolanib; 0.1 µM
  relative viability: 0.953
Crenolanib; 0.3162 µM
  relative viability: 0.811
Crenolanib; 1 µM
  relative viability: 0.912
Tivantinib; 0.01 µM
  relative viability: 0.958
Tivantinib; 0.03162 µM
  relative viability: 0.865
Tivantinib; 0.1 µM
  relative viability: 0.928

## NCI-H358
Crenolanib; 0.01 µM
  relative viability: 1.03
Crenolanib; 0.03162 µM
  relative viability: 1.04
Crenolanib; 0.1 µM
  relative viability: 0.856
Crenolanib; 0.3162 µM
  relative viability: 0.924
Crenolanib; 1 µM
  relative viability: 0.672
Tivantinib; 0.01 µM
  relative viability: 0.94
Tivantinib; 0.03162 µM
  relative viability: 0.909
Tivantinib; 0.1 µM
  relative viability: 0.865
Tivantinib; 0.3162 µM
  relative viability: 0.355

## NCI-H441
Crenolanib; 0.01 µM
  relative viability: 1.08
Crenolanib; 0.03162 µM
  relative viability: 1.11
Crenolanib; 0.1 µM
  relative viability: 0.987
Crenolanib; 0.3162 µM
  relative viability: 1.13
Crenolanib; 1 µM
  relative viability: 0.928
Tivantinib; 0.01 µM
  relative viability: 0.902
Tivantinib; 0.03162 µM
  relative viability: 1.22
Tivantinib; 0.1 µM
  relative viability: 0.9
Tivantinib; 0.3162 µM
  relative viability: 0.939

## NCI-H460
Crenolanib; 0.01 µM
  relative viability: 1
Crenolanib; 0.03162 µM
  relative viability: 0.998
Crenolanib; 0.1 µM
  relative viability: 0.975
Crenolanib; 0.3162 µM
  relative viability: 0.995
Crenolanib; 1 µM
  relative viability: 0.956
Tivantinib; 0.01 µM
  relative viability: 0.986
Tivantinib; 0.03162 µM
  relative viability: 0.971
Tivantinib; 0.1 µM
  relative viability: 0.98
Tivantinib; 0.3162 µM
  relative viability: 0.999

## NCI-H520
Crenolanib; 0.01 µM
  relative viability: 0.93
Crenolanib; 0.03162 µM
  relative viability: 0.999
Crenolanib; 0.1 µM
  relative viability: 1.05
Crenolanib; 0.3162 µM
  relative viability: 0.908
Crenolanib; 1 µM
  relative viability: 1.05
Tivantinib; 0.01 µM
  relative viability: 1.14
Tivantinib; 0.03162 µM
  relative viability: 0.968
Tivantinib; 0.1 µM
  relative viability: 0.867
Tivantinib; 0.3162 µM
  relative viability: 0.964

## NCI-H522
Crenolanib; 0.01 µM
  relative viability: 0.938
Crenolanib; 0.03162 µM
  relative viability: 0.881
Crenolanib; 0.1 µM
  relative viability: 1.03
Crenolanib; 0.3162 µM
  relative viability: 0.869
Crenolanib; 1 µM
  relative viability: 0.95
Tivantinib; 0.01 µM
  relative viability: 0.943
Tivantinib; 0.03162 µM
  relative viability: 0.71
Tivantinib; 0.1 µM
  relative viability: 0.839
Tivantinib; 0.3162 µM
  relative viability: 0.741

## NCI-H596
Crenolanib; 0.01 µM
  relative viability: 0.912
Crenolanib; 0.03162 µM
  relative viability: 1.04
Crenolanib; 0.1 µM
  relative viability: 0.948
Crenolanib; 0.3162 µM
  relative viability: 0.946
Crenolanib; 1 µM
  relative viability: 0.972
Tivantinib; 0.01 µM
  relative viability: 1.08
Tivantinib; 0.03162 µM
  relative viability: 0.826
Tivantinib; 0.1 µM
  relative viability: 0.92
Tivantinib; 0.3162 µM
  relative viability: 1.01
